Like-named read-outs stand apart in the source and are kept apart here.

As usually defined, the IC50 is the concentration that gives 50% inhibition.

The target in experiment [1] is CK2α (Homo sapiens, UniProt P68400). As to conditions: previous hit compounds included for comparison; cited from earlier work.
The subject of experiment [2] is HeLa pEGFP-CK2α cells. In words: Subcellular localization of EGFP-CK2α, cell imaging. The class given is cell-based. As to conditions: 12 h.
Experiment [3] concerns panel of 54 kinases. Conditions: overall selectivity; cited from earlier work.
In experiment [4] the target is Dyrk1A (Homo sapiens, UniProt Q13627). In words: Kinase selectivity panel. Conditions: 5 μM 27.
In experiment [5] the target is T1, human CK2α1−335 (Homo sapiens, UniProt P68400).
T1 sequence (P68400 1-335): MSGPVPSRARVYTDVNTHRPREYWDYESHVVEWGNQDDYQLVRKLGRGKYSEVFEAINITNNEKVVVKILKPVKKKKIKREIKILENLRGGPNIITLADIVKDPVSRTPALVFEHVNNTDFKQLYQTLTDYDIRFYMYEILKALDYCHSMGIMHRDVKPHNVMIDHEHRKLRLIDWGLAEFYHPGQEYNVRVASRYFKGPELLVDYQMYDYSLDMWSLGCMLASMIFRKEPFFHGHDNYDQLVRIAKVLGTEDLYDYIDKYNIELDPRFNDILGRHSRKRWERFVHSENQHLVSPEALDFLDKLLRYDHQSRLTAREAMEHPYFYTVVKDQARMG
In words: Isothermal titration calorimetry. The class given is binding. Conditions: ITC. On the technique in general: In ITC the heat of successive injections is recorded.

For experiment [6], the system named is panel of 54 kinases. Nature of the experiment: Overall selectivity in kinase panel. Conditions: 5 μM.
The target of experiment [7] is CK2α2β2 (peptide substrate) (Homo sapiens, UniProt P68400). Nature of the experiment: Radiometric kinase assay with CK2α2β2, peptide substrate. In kind it is biochemical. Conditions: peptide 29 and peptide M substrates (Figure 2B).
Chain of CK2α2β2 (peptide substrate) (P68400 whole entry): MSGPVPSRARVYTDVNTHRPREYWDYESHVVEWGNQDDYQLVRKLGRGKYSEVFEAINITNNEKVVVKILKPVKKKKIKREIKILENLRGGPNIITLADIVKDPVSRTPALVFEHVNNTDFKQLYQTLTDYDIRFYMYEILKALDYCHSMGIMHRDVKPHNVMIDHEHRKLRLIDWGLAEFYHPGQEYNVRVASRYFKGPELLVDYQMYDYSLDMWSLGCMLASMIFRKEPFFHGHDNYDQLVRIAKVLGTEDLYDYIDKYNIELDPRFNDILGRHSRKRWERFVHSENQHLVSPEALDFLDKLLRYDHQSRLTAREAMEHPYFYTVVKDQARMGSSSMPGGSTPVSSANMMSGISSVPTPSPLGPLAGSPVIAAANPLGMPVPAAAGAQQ
Chain of CK2α2β2 (peptide substrate) (P67870 whole entry partner): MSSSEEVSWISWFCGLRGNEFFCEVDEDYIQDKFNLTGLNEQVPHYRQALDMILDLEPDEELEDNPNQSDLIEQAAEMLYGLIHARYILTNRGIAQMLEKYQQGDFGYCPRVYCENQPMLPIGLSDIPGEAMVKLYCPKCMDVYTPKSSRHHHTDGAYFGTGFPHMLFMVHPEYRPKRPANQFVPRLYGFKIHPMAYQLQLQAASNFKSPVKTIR

Chain of CK2α (P68400 whole entry): as the sequence (P68400 whole entry) above

On to `O=C(O)c1cccc(Nc2nc(-c3cccc([N+](=O)[O-])c3)cs2)c1` [compound 1, 3-((4-(3-nitrophenyl)thiazol-2-yl)amino)benzoic acid], for which, in experiment [1], the IC50 is 30 µM.

`O=C(O)c1ccc2c(c1)nc(Nc1cccc(Cl)c1)c1ccncc12` [CX-4945, 5-(3-chlorophenylamino)benzo[c][2,6]naphthyridine-8-carboxylic acid, reference compound]: the “subcellular localization of EGFP-CK2α” value in experiment [2] (8 μM) was “significant translocation of EGFP-CK2α from the nucleoli to the nuclear matrix and the cytoplasm compartments”. Also, the Gini coefficient in experiment [3] is 0.67.

Consider `O=C(O)c1ccc(Nc2nc(-c3ccc4ccccc4c3)cs2)cc1O` [compound 27, 2-Hydroxy-4-((4-(naphthalen-2-yl)thiazol-2-yl)amino)benzoic acid], for which, in experiment [4], the “inhibition of Dyrk1A” value is on record as “only weakly inhibited”. In experiment [5], the TΔS is 10.6 ± 1.21 kJ/mol. Also, the “subcellular localization of EGFP-CK2α” value in experiment [2] (15 μM) was “nucleolar localization pattern of EGFP-CK2α was mostly retained”. The same compound returned a Gini coefficient in experiment [6] of 0.78. Besides, the “inhibition of holoenzyme complex compared with CK2α” value in experiment [7] is given as “same potency”.

Values taken from publication PMC7579840 (Journal of medicinal chemistry, 2019).
